Literature values as cited in US10751019B2, “Determining a brain condition using early time frame PET image analysis” (ADM DIAGNOSTICS, LLC, priority 2015, dated 2020).

Details: PET tracer in brain, time after tracer injection; varies with tracer, region of accumulation and target load

Row | time to reach equilibrium | Compound
1 | about 45 minutes | [11CH3]Nc1ccc(-c2nc3ccc(O)cc3s2)cc1 [11C-PiB]
2 | 40 to 45 min | CNc1ccc(/C=C/c2ccc(OCCOCCOCCF)nc2)cc1 [florbetapir]
3 | about 80 minutes | CNc1ccc(-c2nc3ccc(O)cc3s2)cc1F [flutemetamol]
